According to patent publication US20230218519A1, “FLUID GEL COMPOSITIONS” (The University of Birmingham, priority 2020, published 2023):
Like-named read-outs stand apart in the source and are kept apart here.

Tests used:
[1] = Release assay from PEG-DA fluid gel (trans-well, UV/Vis); format: physicochemical; conditions: 3% v/v PEG-DA fluid gel (Example 5.3, 500 rpm), into PBS at 37° C., 5 hrs
Method: • Active amounts: […] • Standard concentrations of active in PBS were prepared. • Standards were pipetted into a quartz cuvette (1 mm pathlength). • UV/Vis spectroscopy was used to measure absorbance between 200 and 700 nm wavelength. • Curves were plotted and used to determine standard curves which were used to determine concentrations. • 0.5 ml PBS was added to the well of a 24 well plate. • The PBS was incubated at 37° C. to equilibrate. • 0.1 ml of the fluid gel containing active was placed in a trans-well insert. • The trans-well insert was placed into a well containing PBS. • After a given time period the trans-well insert was removed and placed in a fresh well of PBS. • The release media was then removed and analysed using […] spectroscopy. Concentrations were derived from the standard curves and cumulative release plotted as a function of time.

[2] = test system: primary ovine chondrocytes; assay: Metabolic activity assay (PrestoBlue); format: cell-based
Method: All cell work was undertaken on primary ovine chondrocytes. Cells were first expanded, then seeded into wells 24 hrs prior to the application of the fluid gels. Once treatments were added, the cells were cultured for a further 3 days before testing for both metabolic activity and cell viability. In the presence of functionalised particles, suspension wells were used to promote adhesion to the gelled particles, away from the plastic. Metabolic activity assay was undertaken using a PrestoBlue™ assay kit (Invitrogen). In brief, cells were washed with Dulbecco's PBS, and 1 mL of PrestoBlue™ supplemented medium (10%) was added to each well and incubated for 4 hrs. 50 μL of supernatant from each well was transferred to one well of a 96 well plate and fluorescence was measured using a Tecan Spark (Tecan Group Ltd, UK) plate reader with excitation/emission wavelengths set at 550/620 nm.

Compound	release of active agent from fluid gel [1]	further results
dextran	able to release	–
CC(C)(O)C(=O)c1ccc(OCCO)cc1 [Irgacure-2959, 1-[4-(2-Hydroxyethoxy)-phenyl]-2-hydroxy-2-methyl-1-propane-1-one]	–	metabolic activity, each constituent part of the PEG-DA formulation [2]: slight reduction in cell metabolism, although not statistical
CC(C)(O)C(=O)c1ccccc1 [Omnirad-1173, 2-hydroxy-2-methyl-1-phenylpropanone]	–	metabolic activity, each constituent part of the PEG-DA formulation ([2]; 3 days culture, PEG-DA not cured, 3.5% & 5%): slight reduction in cell metabolism, although not statistical
CC(C)Cc1ccc(C(C)C(=O)O)cc1 (stereo not shown) [Ibuprofen, ibuprofen]	able to release	–
